The NIST ThermoML archive (doi:10.1021/acs.jced.9b00540)

What was measured:
[1] = Liquid, Falling or rolling sphere viscometry
[2] = xn = mol fraction of the nth substance listed; settings: Liquid, x2 = 0

CCOC(F)(C(F)(F)C(F)(F)C(F)(F)F)C(F)(C(F)(F)F)C(F)(F)F (stereo not given) [2-trifluoromethyl-3-ethoxydodecafluorohexane]
viscosity [mPa·s], [1]
Settings	100 kPa	20000 kPa	40000 kPa	60000 kPa	80000 kPa	100000 kPa
293.15 K	1.369	1.894	2.645	3.622	4.894	6.553
313.15 K	0.983	1.356	1.869	2.51	3.31	4.307
333.15 K	0.739	1.032	1.41	1.87	2.427	3.105
353.15 K	0.576	0.799	1.084	1.418	1.808	2.265

CC(C)OC(C)C [diisopropyl ether]
viscosity [mPa·s], [1]
Settings	100 kPa	20000 kPa	40000 kPa	60000 kPa	80000 kPa	100000 kPa
293.15 K	0.33	0.396	0.466	0.542	0.625	0.715
313.15 K	0.27	0.332	0.392	0.454	0.52	0.588
333.15 K	0.225	0.282	0.342	0.402	0.46	0.517
353.15 K	–	0.258	0.308	0.358	0.408	0.457

CC(C)OC(C)C [diisopropyl ether] + CCOC(F)(C(F)(F)C(F)(F)C(F)(F)F)C(F)(C(F)(F)F)C(F)(F)F
viscosity [mPa·s], [2]
Settings	293.15 K	313.15 K	333.15 K	353.15 K
100 kPa, Capillary tube (Ostwald / Ubbelohde) method	0.33	0.27	0.225	–
20000 kPa, Falling or rolling sphere viscometry	0.396	0.332	0.282	0.258
40000 kPa, Falling or rolling sphere viscometry	0.466	0.392	0.342	0.308
60000 kPa, Falling or rolling sphere viscometry	0.542	0.454	0.402	0.358
80000 kPa, Falling or rolling sphere viscometry	0.625	0.52	0.46	0.408
100000 kPa, Falling or rolling sphere viscometry	0.715	0.588	0.517	0.457
